# Assay results taken from PubChem BioAssay AID1259407 (Chemical Carcinogenesis Research Information System (CCRIS), 2018).
# Calls of active or inactive are those of the source. How the calls were made is not given here.
# Tested on: CCRIS mutagenicity, Ames/micronucleus/aberration tests
# Experiment: CCRIS mutagenicity studies
# [1] = Test System: AMES SALMONELLA TYPHIMURIUM, Strain/Indicator: TA98, Metabolic Activation: NONE, Method: PREINCUBATION
# [2] = Test System: AMES SALMONELLA TYPHIMURIUM, Strain/Indicator: TA100, Metabolic Activation: NONE, Method: PREINCUBATION
# [3] = Test System: AMES SALMONELLA TYPHIMURIUM, Strain/Indicator: TA100, Metabolic Activation: NONE, Method: STANDARD PLATE
# [4] = Test System: AMES SALMONELLA TYPHIMURIUM, Strain/Indicator: TA98, Metabolic Activation: NONE, Method: STANDARD PLATE
compound,measurement,setting,value
CCCN(CCC)S(=O)(=O)c1ccc(C(=O)O)cc1,mutagenic call,"Test System: AMES SALMONELLA TYPHIMURIUM, Strain/Indicator: TA98, Metabolic Activation: HAMSTER, LIVER, S-9, AROCLOR 1254 (10%), Method: PREINCUBATION",inactive; negative
same,mutagenic call,[1],inactive; negative
same,mutagenic call,"Test System: AMES SALMONELLA TYPHIMURIUM, Strain/Indicator: TA98, Metabolic Activation: RAT, LIVER, S-9, AROCLOR 1254 (10%), Method: PREINCUBATION",inactive; negative
same,mutagenic call,"Test System: AMES SALMONELLA TYPHIMURIUM, Strain/Indicator: TA100, Metabolic Activation: HAMSTER, LIVER, S-9, AROCLOR 1254 (10%), Method: PREINCUBATION",inactive; negative
same,mutagenic call,[2],inactive; negative
same,mutagenic call,"Test System: AMES SALMONELLA TYPHIMURIUM, Strain/Indicator: TA100, Metabolic Activation: RAT, LIVER, S-9, AROCLOR 1254 (10%), Method: PREINCUBATION",inactive; negative
same,mutagenic call,"Test System: AMES SALMONELLA TYPHIMURIUM, Strain/Indicator: TA1535, Metabolic Activation: HAMSTER, LIVER, S-9, AROCLOR 1254 (10%), Method: PREINCUBATION",inactive; negative
same,mutagenic call,"Test System: AMES SALMONELLA TYPHIMURIUM, Strain/Indicator: TA1535, Metabolic Activation: NONE, Method: PREINCUBATION",inactive; negative
same,mutagenic call,"Test System: AMES SALMONELLA TYPHIMURIUM, Strain/Indicator: TA1535, Metabolic Activation: RAT, LIVER, S-9, AROCLOR 1254 (10%), Method: PREINCUBATION",inactive; negative
same,mutagenic call,"Test System: AMES SALMONELLA TYPHIMURIUM, Strain/Indicator: TA1537, Metabolic Activation: HAMSTER, LIVER, S-9, AROCLOR 1254 (10%), Method: PREINCUBATION",inactive; negative
same,mutagenic call,"Test System: AMES SALMONELLA TYPHIMURIUM, Strain/Indicator: TA1537, Metabolic Activation: NONE, Method: PREINCUBATION",inactive; negative
same,mutagenic call,"Test System: AMES SALMONELLA TYPHIMURIUM, Strain/Indicator: TA1537, Metabolic Activation: RAT, LIVER, S-9, AROCLOR 1254 (10%), Method: PREINCUBATION",inactive; negative
O=[N+]([O-])c1cccc2nc3c([N+](=O)[O-])cccc3nc12,mutagenic call,"Test System: AMES SALMONELLA TYPHIMURIUM, Strain/Indicator: TA98(NR), Metabolic Activation: NONE, Method: PREINCUBATION",inactive; negative
same,mutagenic call,[1],inactive; negative
Nc1cc([N+](=O)[O-])ccc1C(=O)O,mutagenic call,[1],active; positive
same,mutagenic call,"Test System: AMES SALMONELLA TYPHIMURIUM, Strain/Indicator: TA98, Metabolic Activation: RAT, LIVER, S-9, AROCLOR, Method: PREINCUBATION",active; positive
same,mutagenic call,"Test System: CHINESE HAMSTER OVARY, Strain/Indicator: CHO-K1-BH4 (HGPRT)/6-THIOGUANINE, Metabolic Activation: NONE",inactive; negative
same,mutagenic call,"Test System: CHINESE HAMSTER OVARY, Strain/Indicator: CHO-K1-BH4 (HGPRT)/6-THIOGUANINE, Metabolic Activation: S-9",inactive; negative
NNc1nncc2cccnc12,mutagenic call,[1],active; positive
same,mutagenic call,"Test System: AMES SALMONELLA TYPHIMURIUM, Strain/Indicator: TA98, Metabolic Activation: RAT, LIVER, S-9, PCB, Method: PREINCUBATION",active; positive
same,mutagenic call,[2],active; positive
same,mutagenic call,"Test System: AMES SALMONELLA TYPHIMURIUM, Strain/Indicator: TA100, Metabolic Activation: RAT, LIVER, S-9, PCB, Method: PREINCUBATION",active; positive
O=CC(=C(Cl)Cl)C(Cl)Cl,mutagenic call,[3],active; positive
CC(C)CCCCCCOC(=O)c1ccccc1C(=O)OCCCCCCC(C)C,mutagenic call,[4],inactive; negative
same,mutagenic call,"Test System: AMES SALMONELLA TYPHIMURIUM, Strain/Indicator: TA98, Metabolic Activation: RAT LIVER S-9, AROCLOR, Method: STANDARD PLATE",inactive; negative
same,mutagenic call,[3],inactive; negative
same,mutagenic call,"Test System: AMES SALMONELLA TYPHIMURIUM, Strain/Indicator: TA100, Metabolic Activation: RAT LIVER S-9, AROCLOR, Method: STANDARD PLATE",inactive; negative
same,mutagenic call,"Test System: AMES SALMONELLA TYPHIMURIUM, Strain/Indicator: TA1535, Metabolic Activation: NONE, Method: STANDARD PLATE",inactive; negative
same,mutagenic call,"Test System: AMES SALMONELLA TYPHIMURIUM, Strain/Indicator: TA1535, Metabolic Activation: RAT LIVER S-9, AROCLOR, Method: STANDARD PLATE",inactive; negative
same,mutagenic call,"Test System: AMES SALMONELLA TYPHIMURIUM, Strain/Indicator: TA1537, Metabolic Activation: NONE, Method: STANDARD PLATE",inactive; negative
same,mutagenic call,"Test System: AMES SALMONELLA TYPHIMURIUM, Strain/Indicator: TA1537, Metabolic Activation: RAT LIVER S-9, AROCLOR, Method: STANDARD PLATE",inactive; negative
same,mutagenic call,"Test System: AMES SALMONELLA TYPHIMURIUM, Strain/Indicator: TA1538, Metabolic Activation: NONE, Method: STANDARD PLATE",inactive; negative
same,mutagenic call,"Test System: AMES SALMONELLA TYPHIMURIUM, Strain/Indicator: TA1538, Metabolic Activation: RAT LIVER S-9, AROCLOR, Method: STANDARD PLATE",inactive; negative
C=C(C)C(=O)/C(=C\C(=O)O)OC,mutagenic call,[4],inactive; negative
same,mutagenic call,"Test System: AMES SALMONELLA TYPHIMURIUM, Strain/Indicator: TA98, Metabolic Activation: RAT LIVER S-9, DELOREM 103, Method: STANDARD PLATE",inactive; negative
same,mutagenic call,"Test System: AMES SALMONELLA TYPHIMURIUM, Strain/Indicator: TA98, Metabolic Activation: RAT, LIVER, MICROSOMES, PHENOBARBITAL, Method: STANDARD PLATE",inactive; negative
same,mutagenic call,[2],inactive; negative
same,mutagenic call,[3],inactive; negative
same,mutagenic call,"Test System: AMES SALMONELLA TYPHIMURIUM, Strain/Indicator: TA100, Metabolic Activation: RAT LIVER S-9, DELOREM 103, Method: STANDARD PLATE",inactive; negative
same,mutagenic call,"Test System: AMES SALMONELLA TYPHIMURIUM, Strain/Indicator: TA100, Metabolic Activation: RAT, LIVER, MICROSOMES, PHENOBARBITAL, Method: STANDARD PLATE",inactive; negative
same,mutagenic call,"Test System: AMES SALMONELLA TYPHIMURIUM, Strain/Indicator: TA100, Metabolic Activation: RAT, LIVER, S-9, PHENOBARBITAL, Method: PREINCUBATION",inactive; negative
COC(=O)C(=Cc1ccc([N+](=O)[O-])o1)[N+](=O)[O-],mutagenic call,[1],active; positive
O=NN(c1ccc([N+](=O)[O-])cc1)C1OC[C@@H](O)[C@H](O)[C@@H]1O (stereo partly specified),mutagenic call,[3],active; positive
O=C1c2ccccc2C(=O)N1SC1CCCCC1,mutagenic call,"Test System: AMES SALMONELLA TYPHIMURIUM, Strain/Indicator: TA97, Metabolic Activation: NONE, Method: STANDARD PLATE",inactive; negative
same,mutagenic call,"Test System: AMES SALMONELLA TYPHIMURIUM, Strain/Indicator: TA97, Metabolic Activation: RAT LIVER S-9, DELOR 103 (4% OR 10%), Method: STANDARD PLATE",inactive; negative
same,mutagenic call,[4],inactive; negative
same,mutagenic call,"Test System: AMES SALMONELLA TYPHIMURIUM, Strain/Indicator: TA98, Metabolic Activation: RAT LIVER S-9, DELOR 103 (4% OR 10%), Method: STANDARD PLATE",inactive; negative
same,mutagenic call,[3],inactive; negative
same,mutagenic call,"Test System: AMES SALMONELLA TYPHIMURIUM, Strain/Indicator: TA100, Metabolic Activation: RAT LIVER S-9, DELOR 103 (4% OR 10%), Method: STANDARD PLATE",inactive; negative
same,mutagenic call,"Test System: AMES SALMONELLA TYPHIMURIUM, Strain/Indicator: TA102, Metabolic Activation: NONE, Method: STANDARD PLATE",inactive; negative
same,mutagenic call,"Test System: AMES SALMONELLA TYPHIMURIUM, Strain/Indicator: TA102, Metabolic Activation: RAT LIVER S-9, DELOR 103 (4% OR 10%), Method: STANDARD PLATE",inactive; negative
